Tests used:
ryegrass, Italian = assay: Test C pre-/postemergence herbicide test; assay type: in vivo, Lolium multiflorum; conditions: Preemergence
Summary of the method: (§1)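 Two application timings ran in parallel with identically formulated test chemicals (non-phytotoxic solvent, surfactant included): spray on seeded loam–sand soil, and spray on emerged plants 2 to 18 cm high. Evaluation at 13 to 15 days compared each species with controls, rated from 0 up to 100.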

barnyardgrass = assay: Test A pre-/postemergence herbicide test; assay type: in vivo, Echinochloa crus-galli; conditions: for Plant response rating, Barnyardgrass: 0 to 100 scale
Summary of the method: (§2)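 Directed soil spray to seeded pots (preemergence) or spray onto one- to two-leaf seedlings 2–10 cm tall (postemergence); loam/sand substrate throughout. Evaluated visually after about 10 days against untreated plants, 0 = no effect, 100 = complete control.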

corn [1] = assay: Test A pre-/postemergence herbicide test; assay type: in vivo, Zea mays; conditions: for Plant response rating, Corn: 0 to 100 scale
Summary of the method: as §2

corn [2] = assay: Test C pre-/postemergence herbicide test; assay type: in vivo, Zea mays; conditions: Preemergence
Summary of the method: as §1

galium = assay: Test C pre-/postemergence herbicide test; assay type: in vivo, Galium aparine; conditions: Preemergence
Summary of the method: as §1

wheat (winter wheat) = assay: Test C pre-/postemergence herbicide test; assay type: in vivo, Triticum aestivum; conditions: Preemergence
Summary of the method: as §1

crabgrass, large = assay: Test C pre-/postemergence herbicide test; assay type: in vivo, Digitaria sanguinalis; conditions: Preemergence
Summary of the method: as §1

pigweed = assay: Test A pre-/postemergence herbicide test; assay type: in vivo, Amaranthus retroflexus; conditions: for Plant response rating, Pigweed: 0 to 100 scale
Summary of the method: as §2

wheat = assay: Test A pre-/postemergence herbicide test; assay type: in vivo, Triticum aestivum; conditions: for Plant response rating, Wheat: 0 to 100 scale
Summary of the method: as §2

soybean = assay: Test C pre-/postemergence herbicide test; assay type: in vivo, Glycine max; conditions: Preemergence
Summary of the method: as §1

morningglory = assay: Test C pre-/postemergence herbicide test; assay type: in vivo, Ipomoea coccinea; conditions: Preemergence
Summary of the method: as §1

johnsongrass = assay: Test C pre-/postemergence herbicide test; assay type: in vivo, Sorghum halepense; conditions: Preemergence
Summary of the method: as §1

foxtail, giant = assay: Test C pre-/postemergence herbicide test; assay type: in vivo, Setaria faberii; conditions: Preemergence
Summary of the method: as §1

[3] = 31 g ai/ha, scale 0 to 100, 0 is no effect and 100 is complete control
[4] = 62 g ai/ha, scale 0 to 100 (0 no effect, 100 complete control)
[5] = 125 g ai/ha, scale 0 to 100 (0 no effect, 100 complete control)
[6] = 125 g ai/ha, visual rating, 0 no effect, 100 complete control, approximately 10 days, preemergence
[7] = Postemergence, 125 g ai/ha, 0 is no effect, 100 is complete control
[8] = preemergence, 500 g ai/ha, 0 is no effect and 100 is complete control

O=C1NCC(c2cccc(C(F)(F)F)c2)C1C(=O)Nc1ccccc1Cl (racemic) [Compound 189]
Ryegrass, Italian plant response rating (ryegrass, Italian; [3]): 0 | Ryegrass, Italian plant response rating (ryegrass, Italian; [4]): 30 | Plant response rating, Ryegrass, Italian (ryegrass, Italian; [5]): 45 | Plant response rating, Ryegrass, Italian (ryegrass, Italian; 16 g ai/ha, scale 0 to 100): 0 | Plant response rating, Barnyardgrass (barnyardgrass; [6]): 80 | Plant response rating, Barnyardgrass (barnyardgrass; [7]): 90 | Barnyardgrass plant response rating (0 to 100 scale, 0 is no effect, 100 is complete control) (barnyardgrass; Postemergence, 500 g ai/ha): 90 | Plant response rating, Barnyardgrass (barnyardgrass; [8]): 90 | Plant response rating, Corn (corn [1]; [6]): 0 | Plant response rating, Corn (corn [1]; [7]): 0 | Corn plant response rating (0 to 100 scale, 0 is no effect, 100 is complete control) (corn [1]; Postemergence, 500 g ai/ha): 60 | Plant response rating, Corn (corn [1]; [8]): 0 | Corn plant response rating (corn [2]; [3]): 0 | Corn plant response rating (corn [2]; [4]): 0 | Plant response rating, Corn (corn [2]; [5]): 40 | Plant response rating, Corn (corn [2]; 16 g ai/ha, scale 0 to 100): 0 | Galium plant response rating (galium; [3]): 0 | Galium plant response rating (galium; [4]): 0 | Plant response rating, Galium (galium; [5]): 80 | Plant response rating, Galium (galium; 16 g ai/ha, scale 0 to 100): 0 | Wheat plant response rating (wheat (winter wheat); [3]): 0 | Wheat plant response rating (wheat (winter wheat); [4]): 0 | Plant response rating, Wheat (wheat (winter wheat); [5]): 0 | Plant response rating, Wheat (wheat (winter wheat); 16 g ai/ha, scale 0 to 100): 0 | Crabgrass, Large plant response rating (crabgrass, large; [3]): 95 | Crabgrass, Large plant response rating (crabgrass, large; [4]): 95 | Plant response rating, Crabgrass, Large (crabgrass, large; [5]): 98 | Plant response rating, Crabgrass, Large (crabgrass, large; 16 g ai/ha, scale 0 to 100): 90 | Plant response rating, Pigweed (pigweed; [6]): 0 | Plant response rating, Pigweed (pigweed; [7]): 0 | Pigweed plant response rating (0 to 100 scale, 0 is no effect, 100 is complete control) (pigweed; Postemergence, 500 g ai/ha): 0 | Plant response rating, Pigweed (pigweed; [8]): 0 | Plant response rating, Wheat (wheat; [6]): 0 | Plant response rating, Wheat (wheat; [7]): 0 | Wheat plant response rating (0 to 100 scale, 0 is no effect, 100 is complete control) (wheat; Postemergence, 500 g ai/ha): 0 | Plant response rating, Wheat (wheat; [8]): 20 | Soybean plant response rating (soybean; [3]): 5 | Soybean plant response rating (soybean; [4]): 10 | Plant response rating, Soybean (soybean; [5]): 0 | Plant response rating, Soybean (soybean; 16 g ai/ha, scale 0 to 100): 0 | Morningglory plant response rating (morningglory; [3]): 0 | Morningglory plant response rating (morningglory; [4]): 0 | Plant response rating, Morningglory (morningglory; [5]): 0 | Plant response rating, Morningglory (morningglory; 16 g ai/ha, scale 0 to 100): 0 | Johnsongrass plant response rating (johnsongrass; [3]): 0 | Johnsongrass plant response rating (johnsongrass; [4]): 0 | Plant response rating, Johnsongrass (johnsongrass; [5]): 15 | Plant response rating, Johnsongrass (johnsongrass; 16 g ai/ha, scale 0 to 100): 0 | Foxtail, Giant plant response rating (foxtail, giant; [3]): 80 | Foxtail, Giant plant response rating (foxtail, giant; [4]): 90 | Plant response rating, Foxtail, Giant (foxtail, giant; [5]): 95 | Plant response rating, Foxtail, Giant (foxtail, giant; 16 g ai/ha, scale 0 to 100): 85

From patent US10294202B2, “Pyrrolidinones as herbicides” (FMC Corporation, priority 2013, dated 2019)
